According to US6160004A, “C-10 carbon-substituted artemisinin-like trioxane compounds having antimalarial, antiproliferative and antitumor activities” (priority 1998, dated 2000):
Read-outs that look alike come from different tables or passages of the source.

Tests used:
[1] = system: HCC-2998; test: NCI 60 cell line panel screening assay (SRB), HCC-2998; format: cell-based; conditions: Homo sapiens, HCC 2998, 48 h, read-out: Log10 LC50 (converted)
[2] = Stability (hydrolysis); format: physicochemical
[3] = system: SK-MEL-5; test: NCI 60 cell line panel screening assay (SRB), SK-MEL-5; format: cell-based; conditions: Homo sapiens; SK-MEL-5, melanoma, 48 h; read-out: Log10 GI50 (converted)
[4] = system: P. berghei; conditions: P. berghei-infected mice, parasitemia 90 percent suppressed; cited from earlier work
[5] = system: 60 cell line panel; conditions: 60 line panel, earlier studies; cited from earlier work
[6] = system: Ehrlich ascites tumor (EAT) cells; conditions: MTT, growth inhibition; cited from earlier work
[7] = system: P. falciparum, two Hanian strains; conditions: P. falciparum in vitro; cited from earlier work
[8] = system: malaria; test: In vivo antimalarial activity; parameters: species or system rodents; conditions: sc
[9] = system: P. vivax and P. falciparum; conditions: cited from earlier work
[10] = cited from earlier work
[11] = system: P. falciparum Camp (chloroquine-susceptible) and Smith (chloroquine-resistant) strains; conditions: P. falciparum in vitro; cited from earlier work
[12] = system: IGROVI; test: NCI 60 cell line panel screening assay (SRB), IGROVI; format: cell-based; conditions: 48 h, read-out: Log10 TGI
[13] = system: murine keratinocyte cell line PE; test: Growth inhibition of murine keratinocytes (MTT); format: cell-based, murine (SENCAR mice); conditions: 100 nanomolar
Experimental: To determine the inhibitory effect of the compositions of the present invention on cell proliferation, screening assays were performed on a murine keratinocyte cell line PE. Cell line PE was chosen for its particular sensitivity to the induction of ornithine decarboxylase (ODC) activity by the extensively characterized tumor promoter TPA. […] PE cell culture medium consisted of Eagle's minimal essential medium without calcium chloride (Whittaker Bioproducts, Walkersville, Mass.) supplemented with 8% chelexed fetal calf serum and 1% antibiotic-antimycotic (Gibco BRL) and the addition of CaCl2 to 0.05 mM Ca^++.
MTT [3-(4,5-dimethylthiazol-2-yl)-2,5-diphenyltetraxolium bromide] was purchased from Sigma Chemical Co. (St. Louis, Mo.), and TPA was supplied by L.C. Services (Woburn, Mass.). L-[^14 C]omithine (56 μCi/mol) was from Amersham/Searle Corp. (Arlington Heights, Ill.). Chemical solvents used in all assays of biological activity were of the highest grade commercially available.
Growth Inhibition. Growth curves, shown in FIGS. 1-5, for PE cells treated with calcitriol and the C-10 carbon-substituted dimers 38, 39, 43, 44, 45, 47 and 48, and monomer 27 generated by assay for the reduction of the tetrazolium-based compound MTT, see Charmichael, et al., Cancer Res., 47:936-942 (1987). […] PE cells were seeded at a density of 5,000 cells/well in 50 μL of medium into 96-well microtiter plates. Twelve hours later, the medium was removed, and cells were treated with 100 μL of fresh medium into which the appropriate amount of calcitriol or analog dissolved in dimethyl sulfoxide (DMSO) had been added, with the concentration of DMSO held constant at 0.1%. […] At 24-hour intervals following the initial treatment of the cells with compounds, 0.1 mg (50 μL of a 2 mg/mL solution) of MTT was added to each well. After 4 hours, the MTT was removed and DMSO added to dissolve the blue formazan dye. Using a microtiter plate reader, the A505 was then determined and cell number calculated from blank-subtracted absorbance values.

C[C@H]1[C@@H](F)O[C@@H]2O[C@@]3(C)CC[C@H]4[C@H](C)CC[C@@H]1[C@@]24OO3 [Compound VI, 10β-Fluoro-10-deoxoartemisinin]
CC50 [1]: > 100 µM
stability [2]: stable crystalline solid
GI50 [3]: 0.49 µM

C[C@@H]1CC[C@H]2[C@@H](C)C(=O)O[C@@H]3O[C@@]4(C)CC[C@@H]1[C@]32OO4 [Artemisinin]
SD90 [4]: 6.20 mg/kg
anticancer activity [5]: very little anticancer activity
IC50 [6]: 29.8 µM
potency compared to chloroquine [7]: comparable
ED50 ([8]; read-out: ED50 subcutaneous): 3 mg/kg
ED90 ([8]; read-out: ED90 subcutaneous): 8.5 mg/kg
clinical outcome in malaria patients [9]: clinical cure of all patients
clinical outcome in malaria patients ([9]; listed as artemisinin): used successfully in many thousand malaria patients
solubility in water [10]: insolubility in water
potency compared to mefloquine [11]: comparable

CC1CCC2C(C)C(CC(=O)c3cccc(C(=O)CC4OC5OC6(C)CCC7C(C)CCC(C4C)C57OO6)c3)OC3OC4(C)CCC1C32OO4 (stereo not drawn) [Dimer 39]
IC (TGI) [12]: > 100 µM
antiproliferative activity relative to calcitriol [13]: at least as antiproliferative as calcitriol
